Laboratory results published in US12371419B2, “Aminopyrimidine/pyrazine derivatives as CTPS1 inhibitors” (Step Pharma S.A.S., priority 2018, dated 2025).

What follows are molecules tested on Human CTPS1 versus CTPS2 (assay: RapidFire/MS-based enzyme selectivity assay, human CTPS1 versus CTPS2). Details: calculated from RF/MS IC50 values for human CTPS1 and CTPS2.
Type: biochemical
Protocol: Human CTPS1 versus CTPS2 Selectivity Assessment by RapidFire/MS Analysis.
The enzyme inhibitory activities against each target isoform of interest may be determined for the compounds of the invention using an optimised RapidFire high-throughput mass spectrometry (RF/MS) assay format. RF/MS assays for both human CTPS1 and CTPS2 may be performed in assay buffer consisting of 50 mM HEPES (Merck), 20 mM MgCl2, 5 mM KCl, 1 mM DTT, 0.01% Tween-20, pH to 8.0 accordingly. Human full-length active C-terminal FLAG-His-tag CTPS1 (UniProtKB-P17812, CTPS[1-591]-[…]) may be obtained from Proteros biostructures GmbH. Human full length active C-terminal FLAG-His-Avi tagged CTPS2 (UniProtKB-Q9NRF8, CTPS2 [1-586]-[…]) may be obtained from Harker Bio.
Human CTPS (1 or 2) protein may be prepared in 1× assay buffer to the final working protein concentration required for the reaction. A 2 uL volume per well of 2×CTPS (1 or 2) protein may be mixed with 40 nL of compound using acoustic (ECHO) delivery and incubated for 10 minutes at 25° C. Each isoform enzymatic reaction may be subsequently initiated by addition of 2 uL per well of a 2× substrate mix in assay buffer. For hCTPS1: ATP (0.3 mM), UTP (0.2 mM), GTP (0.07 mM) and L-glutamine (0.1 mM). For hCTPS2: ATP (0.1 mM), UTP (0.04 mM), GTP (0.03 mM) and L-glutamine (0.1 mM). Each mixture may be incubated for an appropriate amount of time per isoform within the determined linear phase of the reaction at 25° C. A 60 uL volume of stop solution (1% formic acid with 0.5 uM ^13C9-^15N3-CTP in H20) may be added and the plate immediately heat-sealed and centrifuged for 10 minutes at 4,000 rpm. Following centrifugation, plates may be loaded onto the Agilent RapidFire microfluidic solid phase extraction system coupled to an API4000 triple quadrupole mass spectrometer (RF/MS) for analysis.
In all cases, the enzyme converts UTP to CTP. Highly specific and sensitive multiple reaction monitoring (MRM) MS methods may be optimised for the detection of the enzymatic reaction product, CTP, and the stable isotope labelled product standard ^13C9-^15N3-CTP. Readout for data analysis may be calculated as the ratio between the peak area of the product CTP and the internal standard ^13C9-^15N3-CTP. For data reporting, the following equation may be used: […]
For each screening plate, the means of the negative (DMSO) and positive control values were used for the calculation of the respective assay window (S/B) and Z′ values. The median of the respective control values was used for calculation of percent inhibition according to the following equation: […]
Percentage inhibition was then plotted against compound concentration, and the 50% inhibitory concentration (IC50) was determined from the resultant concentration-response curve.
Fold selectivity between CTPS1 and CTPS2 was subsequently calculated according to the following equation: […]

Structure (SMILES)	Selectivity (fold selectivity between CTPS1 and CTPS2)
CCOc1cncc(-c2ccc(NC(=O)C3(c4ccnc(NS(=O)(=O)C5CC5)n4)CCCC3)nc2)n1 [P136, 1-(2-(cyclopropanesulfonamido)pyrimidin-4-yl)-N-(5-(6-ethoxypyrazin-2-yl)pyridin-2-yl)cyclopentane-1-carboxamide]	+++ (>60 fold (+++))
CCOc1cncc(-c2ccc(NC(=O)C3(c4cncc(NS(=O)(=O)C5CC5)n4)CCOCC3)nc2)n1 [P197]	+++ (>60 fold (+++))
CCOc1cncc(-c2ccc(NC(=O)C3(c4ccnc(NS(=O)(=O)C5CC5)n4)CCOCC3)nc2)n1 [P115, 4-(2-(Cyclopropanesulfonamido)pyrimidin-4-yl)-N-(5-(6-ethoxypyrazin-2-yl)pyridin-2-yl)tetrahydro-2H-pyran-4-carboxamide]	+++ (>60 fold (+++))
CCOc1cncc(-c2ccc(NC(=O)C3(c4ccnc(NS(=O)(=O)C5CC5)n4)CCOCC3)c(F)c2)n1 [P143, 4-(2-(cyclopropanesulfonamido)pyrimidin-4-yl)-N-(4-(6-ethoxypyrazin-2-yl)2-fluorophenyl)tetrahydro-2H-pyran-4-carboxamide]	+++ (>60 fold (+++))

Now from value to molecule:

Selectivity (fold selectivity between CTPS1 and CTPS2)	Structure (SMILES)
+ (2-30 fold (+))	CCOc1cncc(-c2ccc(NC(=O)C(F)(CC)c3cncc(NS(=O)(=O)C4CC4)n3)nc2)n1 (single isomer, unassigned) [P207, 2-(6-(cyclopropanesulfonamido)pyrazin-2-yl)-N-(5-(6-ethoxypyrazin-2-yl)pyridin-2-yl)-2-fluorobutanamide]
+++ (>60 fold (+++))	CCOc1cncc(-c2ccc(NC(=O)C(CCOC)c3ccnc(NS(=O)(=O)C4CC4)n3)nc2)n1 (stereo not drawn) [P145, 2-(2-(cyclopropanesulfonamido)pyrimidin-4-yl)-N-(5-(6-ethoxypyrazin-2-yl)pyridin-2-yl)-4-methoxybutanamide]
+++ (>60 fold (+++))	CCOc1cncc(-c2ccc(NC(=O)C(F)(CC)c3cncc(NS(=O)(=O)C4CC4)n3)nc2)n1 (single isomer, unassigned) [P206, 2-(6-(cyclopropanesulfonamido)pyrazin-2-yl)-N-(5-(6-ethoxypyrazin-2-yl)pyridin-2-yl)-2-fluorobutanamide]
+ (2-30 fold (+))	CCOc1cncc(-c2ccc(NC(=O)C(F)(CC)c3ccnc(NS(=O)(=O)C4CC4)n3)nc2)n1 (single isomer, unassigned) [P113, 2-(2-(Cyclopropanesulfonamido)pyrimidin-4-yl)-N-(5-(6-ethoxypyrazin-2-yl)pyridin-2-yl)-2-fluorobutanamide]
+++ (>60 fold (+++))	CCOc1cncc(-c2ccc(NC(=O)C(F)(CC)c3ccnc(NS(=O)(=O)C4CC4)n3)nc2)n1 (single isomer, unassigned) [P114, 2-(2-(Cyclopropanesulfonamido)pyrimidin-4-yl)-N-(5-(6-ethoxypyrazin-2-yl)pyridin-2-yl)-2-fluorobutanamide]
